Data from patent US20180008592A1, “TREATMENT OF UREMIC PRURITUS” (TREVI THERAPEUTICS, INC., priority 2016, published 2018).

How the values were obtained:
Assay type in all cases: in vivo, human
[1] = system: renally impaired patients on hemodialysis with moderate or severe uremic pruritus; experiment: Same trial: Hospital Anxiety and Depression Scale (HADS)
Description: (§1) The primary endpoint was the change from Baseline to the Evaluation Period (Study weeks 7 and 8) in the modified intent-to-treat population. Quality of life-related secondary endpoints included change from Day 1 to the Evaluation Period in itching-related quality of life (using the Skindex-10 (FIG. 8)) and itching-related sleep disruption (using the Itch Medical Outcomes Study [Itch MOS] (FIG. 9), SLP-9). The Hospital Anxiety and Depression Score (HADS) used as a general measure of anxiety and depression. All patient-reported outcomes measures were selected based on their prior validation in uremic pruritus patients specifically or in the dialysis population more generally.
(§2) The primary and quality of life secondary endpoint analyses used a mixed model repeated measures ANCOVA with the main effects of treatment and site and baseline worst itch NRS score as the covariate. The model included time (i.e. Visit) as a factor variable and treatment*time (with placebo as the reference category) with an unstructured covariance structure for repeated measures. Data from all post-baseline visits were used to fit the model. For the primary endpoint, the baseline value was defined as the mean of worst itch daytime and nighttime NRS scores used for satisfying the protocol inclusion criterion #5 (mean worst itching NRS≧4.5 based on a total of 3 daytime and 3 nighttime measurements from 3 dialysis visits). For the secondary endpoints, the baseline value was based on a measurement taken on Study Day 1, prior to randomization. A pre-specified step-down procedure was used. The first comparison was of nalbuphine 120 mg BID dose vs. placebo. If the first comparison was significant at the p<0.05 level, then the comparison between the nalbuphine 60 mg BID dose vs. placebo would be conducted. Patients with a 15% or greater response in worst itch NRS were analyzed using a Cochran-Mantel-Haenszel (CMH) test. Analysis of the Itch MOS utilized the SLP-9 scoring algorithm.
In the first 2 weeks of treatment, patients were blindly force-titrated to their assigned target dose, with the patients in the active arms reaching a dose of 60 mg BID (NAL 60) after the first week and, for those in the high dose group, to 120 mg BID (NAL 120) after the second week. Study drug was administered in blister cards containing the labeled morning and evening doses for each day of the week. Subsequently, patients continued stable doses of the study drug for an additional 6 weeks and were then washed off study drug and followed for another 2 weeks for itching intensity and safety. […]

[2] = system: renally impaired patients on hemodialysis with moderate or severe uremic pruritus; experiment: Same trial: safety and tolerability (adverse events, discontinuation)
Description: The term “adverse event” (AE) as used herein is defined as any untoward medical occurrence in a clinical investigation patient reported on or after the first screening date. […] An AE can therefore be any unfavorable and unintended sign (including an abnormal laboratory finding), symptom whether or not related to the medicinal (investigational) product, or disease temporally associated with the use of a medicinal (investigational) product. Typical adverse events include nausea, vomiting, somnolence, dizziness and hallucination. In accordance with the present invention, the rate of adverse events after the treatment is substantially the same as the rate of adverse events after administering a placebo for the same period of time.
This clinical study was a parallel, double-blind, placebo-controlled trial in which renally impaired patients on hemodialysis with moderate or severe uremic pruritus were randomized in a 1:1:1 ratio to nalbuphine ER tablets to a target dose of 120 mg BID or 60 mg BID, or matching placebo tablets BID. Medications taken for treatment of pruritus (“antipruritic medications”) were not prohibited, but their use was recorded throughout the study. Use of skin emollients was also not restricted. A placebo comparator was chosen because there are no approved treatments for uremic pruritus in the United States or Europe or an established standard of care that could serve as an active control.
The primary objectives were to evaluate the effects on itching intensity using a Worst Itching Intensity Numerical Rating Scale (NRS, 0 [no itching]-10 [worst possible itching]) (FIG. 7) as well as safety and tolerability. The study was conducted at 46 United States investigative sites and 6 investigative sites in Romania and Poland. The Sponsor oversaw the conduct of the trial and an independent unblinded Data Safety Monitoring Board reviewed safety data approximately once a month during the conduct of the trial.
(§3) In the first 2 weeks of treatment, patients were blindly force-titrated to their assigned target dose, with the patients in the active arms reaching a dose of 60 mg BID (NAL 60) after the first week and, for those in the high dose group, to 120 mg BID (NAL 120) after the second week. Study drug was administered in blister cards containing the labeled morning and evening doses for each day of the week. Subsequently, patients continued stable doses of the study drug for an additional 6 weeks and were then washed off study drug and followed for another 2 weeks for itching intensity and safety. No down-titration was permitted during the study, although patients who missed 6 or more consecutive doses during the Stable Dose Period (Weeks 3-8) could, with the Medical Monitor's approval, re-start treatment with blinded re-titration of just the morning or evening dose for 3 days before returning to the original dose. Patients were allowed to remain on their background antipruritic medications such as antihistamines and the use of these medications and indication for treatment was collected.

[3] = system: renally impaired patients on hemodialysis with moderate or severe uremic pruritus; experiment: Same trial: Skindex-10 (itch-related quality of life); conditions: for Skindex-10 Disease Domain (bothersomeness of itching) [0-18], change from Baseline to the Evaluation Period, mean (SD) / Skindex-10 Mood/emotional distress domain (0-24), change from Baseline to the Evaluation Period, mean (SD) / Skindex-10 Social Functioning Domain [0-18], change from Baseline to the Evaluation Period, mean (SD) / Skindex-10 Total Score [0 (best) to 60 (worst)], change from Baseline to the Evaluation Period, mean (SD): 60 mg BID; for Skindex-10 Mood/emotional distress domain (0-24), change from Baseline to the Evaluation Period, mean / Skindex-10 Social Functioning Domain [0-18], change from Baseline to the Evaluation Period, mean / Skindex-10 Total Score [0 (best) to 60 (worst)], change from Baseline to the Evaluation Period, mean / Skindex-10 Disease Domain (bothersomeness of itching) [0-18], change from Baseline to the Evaluation Period, mean: 120 mg BID
Description: FIG. 8 provides a numerical scale (range, 0-6; anchors at 0 “never bothered” and 6 “always bothered”) (top) used for answering 10 questions used in the assessment of itching-related quality of life (bottom) (Skindex-10).
as §1, §2, §3

[4] = system: renally impaired patients on hemodialysis with moderate or severe uremic pruritus; experiment: Same trial: Itch MOS (itch-related sleep disruption); conditions: for patients with sleep latency (time to fall asleep) >30 minutes, Itch MOS: last treatment week (Week 8)
Description: FIG. 9 provides 12 questions and a numerical scale (range, 1-6; anchors at 1 “All of the time”; 2 “Most of the time”; 3 “A good bit of the time”; 4 “Some of the time”; 5 “A little of the time”; and 6 “None of the time”) used in assessing itching-related sleep disruption (Itch Medical Outcomes Study (MOS) Questions).
as §1, §2, §3

[5] = severe subgroup (Baseline NRS ≧ 7), N = 61
[6] = severe subgroup (Baseline NRS ≧ 7), N = 63

With `Cl.Oc1ccc2c3c1O[C@H]1[C@@H](O)CC[C@@]4(O)[C@@H](C2)N(CC2CCC2)CC[C@]314` [Nalbuphine, 17-(cyclobutylmethyl)-4,5α-epoxymorphinian-3,6α, 14-triol, hydrochloride] the “HADS Anxiety Subscale (0-21), change from Baseline to the Evaluation Period, mean (SD)” value ([1]; 60 mg BID, N = 128) was −1.72 (3.0), the “HADS Depression Subscale (0-21), change from Baseline to the Evaluation Period, mean (SD)” value ([1]; 60 mg BID, N = 128) was −0.68 (3.1) and the “HADS Anxiety Subscale (0-21), change from Baseline to the Evaluation Period, mean” value ([1]; 120 mg BID, N = 120) was −1.64. For the same molecule, the “HADS Depression Subscale (0-21), change from Baseline to the Evaluation Period, mean” value ([1]; 120 mg BID, N = 120) was −1.03, the “Adverse Events Leading to Discontinuation: Dizziness” value ([2]; 60 mg BID) was 0.8% and the “Adverse Events Leading to Discontinuation: Hallucination” value ([2]; 60 mg BID) was 1.6%. The “Adverse Events Leading to Discontinuation: Nausea” value ([2]; 60 mg BID) was 9.5%, the “Adverse Events Leading to Discontinuation: Somnolence” value ([2]; 60 mg BID) was 4.0% and the “Adverse Events Leading to Discontinuation: Vomiting” value ([2]; 60 mg BID) was 9.5%. The “Adverse Events Leading to Discontinuation, number of patients” value ([2]; 60 mg BID, N = 128) was 33, the “Adverse Events Leading to Discontinuation, percent of patients” value ([2]; 60 mg BID, N = 128) was 26.2% and the “Serious Adverse Events (incidence)” value ([2]; 60 mg BID, N = 128, hydrochloride) was 12.7%. The “Serious Adverse Events (incidence)” value ([2]; 60 mg BID, N = 128, listed as NAL 60, hydrochloride) was 12.7%, the “Adverse Events Leading to Discontinuation: Dizziness” value ([2]; 120 mg BID) was 2.5% and the “Adverse Events Leading to Discontinuation: Hallucination” value ([2]; 120 mg BID) was 2.5%. For the same molecule, the “Adverse Events Leading to Discontinuation: Nausea” value ([2]; 120 mg BID) was 10.0%, the “Adverse Events Leading to Discontinuation: Somnolence” value ([2]; 120 mg BID) was 1.7% and the “Adverse Events Leading to Discontinuation: Vomiting” value ([2]; 120 mg BID) was 5.0%. The “Adverse Events Leading to Discontinuation, number of patients” value ([2]; 120 mg BID, N = 120) was 27, the “Adverse Events Leading to Discontinuation, percent of patients” value ([2]; 120 mg BID, N = 120) was 22.5% and the “Serious Adverse Events (incidence)” value ([2]; 120 mg BID, N = 120, hydrochloride) was 6.7%. For the same molecule, the “Serious Adverse Events (incidence)” value ([2]; 120 mg BID, N = 120, listed as NAL 120, hydrochloride) was 6.7%, the “mood effects (adverse event reporting, Skindex-10 mood domain, HADS)” value ([2]; ER tablets, both doses) was “neutral in mood effects” and the safety profile ([2]; ER tablets, both doses) was “no adverse safety trends other than those expected from a centrally-acting opioid”. The “Skindex-10 Disease Domain (bothersomeness of itching) [0-18], change from Baseline to the Evaluation Period, mean (SD)” value ([3]; N = 128) was −5.3 (4.9), the “Skindex-10 Mood/emotional distress domain (0-24), change from Baseline to the Evaluation Period, mean (SD)” value ([3]; N = 128) was −4.4 (5.0) and the “Skindex-10 Social Functioning Domain [0-18], change from Baseline to the Evaluation Period, mean (SD)” value ([3]; N = 128) was −4.2 (6.7). The “Skindex-10 Total Score [0 (best) to 60 (worst)], change from Baseline to the Evaluation Period, mean (SD)” value ([3]; N = 128) was −13.8 (14.6), the “Skindex-10 Mood/emotional distress domain (0-24), change from Baseline to the Evaluation Period, mean” value ([3]; N = 120) was −5.2 and the “Skindex-10 Social Functioning Domain [0-18], change from Baseline to the Evaluation Period, mean” value ([3]; N = 120) was −5.4. For the same molecule, the “Skindex-10 Total Score [0 (best) to 60 (worst)], change from Baseline to the Evaluation Period, mean” value ([3]; N = 120) was −17.0, the “Skindex-10 Disease Domain (bothersomeness of itching) [0-18], change from Baseline to the Evaluation Period, mean” value ([3]; N = 120, p < 0.1) was −6.4 and the “Skindex-10 Disease Domain (bothersomeness of itching) [0-18], change from Baseline to the Evaluation Period, mean (SD)” value [3, 5] was −6.2 (5.1). For the same molecule, the “Skindex-10 Mood/emotional distress domain (0-24), change from Baseline to the Evaluation Period, mean (SD)” value [3, 5] was −5.1 (5.0), the “Skindex-10 Social Functioning Domain [0-18], change from Baseline to the Evaluation Period, mean (SD)” value [3, 5] was −5.1 (7.04) and the “Skindex-10 Total Score [0 (best) to 60 (worst)], change from Baseline to the Evaluation Period, mean (SD)” value [3, 5] was −16.4 (15.1). For the same molecule, the “Skindex-10 Social Functioning Domain [0-18], change from Baseline to the Evaluation Period, mean” value [3, 6] was −7.1, the “Skindex-10 Total Score [0 (best) to 60 (worst)], change from Baseline to the Evaluation Period, mean” value [3, 6] was −20.5 and the “Skindex-10 Disease Domain (bothersomeness of itching) [0-18], change from Baseline to the Evaluation Period, mean” value ([3]; severe subgroup (Baseline NRS ≧ 7), N = 63, p < 0.05) was −7.1. The “Skindex-10 Mood/emotional distress domain (0-24), change from Baseline to the Evaluation Period, mean” value ([3]; severe subgroup (Baseline NRS ≧ 7), N = 63, p < 0.1) was −6.4, the “Itch MOS [0 (best) to 60 (worst)], change from Baseline to the Evaluation Period, mean (SD)” value ([4]; 60 mg BID, N = 128) was −13.9 (17.6) and the “patients with sleep latency (time to fall asleep) >30 minutes, Itch MOS” value ([4]; 60 mg BID, 68.7% at baseline) was 35.9%. The “Itch MOS [0 (best) to 60 (worst)], change from Baseline to the Evaluation Period, mean” value ([4]; 120 mg BID, N = 120, p < 0.1) was −16.0, the “patients with sleep latency (time to fall asleep) >30 minutes, Itch MOS” value ([4]; 120 mg BID, 67.5% at baseline) was 25.0% and the “Itch MOS (Itch-Related Sleep Disruption) [0 (best) to 60 (worst)], change from Baseline to the Evaluation Period, mean (SD)” value ([4]; severe subgroup (Baseline NRS ≧ 7), 60 mg BID, N = 61) was −15.0 (17.7). The “Itch MOS (Itch-Related Sleep Disruption) [0 (best) to 60 (worst)], change from Baseline to the Evaluation Period, mean” value ([4]; severe subgroup (Baseline NRS ≧ 7), 120 mg BID, N = 63, p < 0.01) was −21.6 and the “Sleep disruption due to itching” value ([4]; severe subgroup (Baseline NRS ≧7.0), 120 mg BID, p=0.007) was “improved significantly relative to placebo”.
